Measured values reported in patent US4784845A, “Emulsion compostions for the parenteral administration of sparingly water soluble ionizable hydrophobic drugs” (American Cyanamid Company, priority 1985, dated 1988).
≈ marks a conversion by molar mass, not a printed value. Structures can show the parent of a compound that is named as a salt.

Columns and labels:
mammals = settings: aqueous solution, intravenous; cited from earlier work
[1] = cited from earlier work; for Ambient Solution pH: commercial drug solution; for pH beyond which significant precipitation occurs: intravenous infusion, commercial drugs
physchem = format: physicochemical
Description: (§1) Because the antiarthritic triazine compound is a base, organic acids as counter-ions were studied to improve drug solubility. […] Additional drug complexes were prepared with various organic and inorganic acids. […] The inherent insolubility of the drug appears to be responsible, to some extent, for the preceding results. In order to overcome the drug insolubility problem one of the objectives considered was to design a dosage form which would improve drug absorption when given by intravenous, intramuscular or intra-articular injection.

[2] = Absorption and excretion of antiarthritic triazine candidate dosage forms; settings: in vivo
Description: as §1

soft tissues = settings: extravasation about the site of attempted intravenous administration; cited from earlier work
[3] = Solubility of bisantrene in selected media and biological fluids (Table IB); format: physicochemical
[4] = Partitioning of bisantrene in blood; format: in vitro ADME; settings: inferred from solubility characteristics and other information
Description: In serum and plasma, however, due to increase in the pH, the solubility drops considerably and this may be the reason that the drug precipitates at the point of infusion. […] Thus, if the drug can be kept in solution long enough to allow complete dilution in the entire blood volume, then the partitioning should take place without the intermediate precipitation.

[5] = tested on: Marginal Ear Vein of Rabbits; assay: Peripheral vein irritation on intravenous infusion, rabbits (Table IV); format: in vivo, rabbit; set-up: key: +: Positive or present; -: Negative or absent; settings: 2 hour i.v. infusion, gross postmortem one day after
Description: The emulsion drug delivery system formulation of Emulsions 3 and 4 in Table III was tested in two species of animals, for peripheral vein irritation in order to determine the occurrence of local injection site adverse reactions. […] The two species of animals used were rabbits and dogs. The formulations were given intravenously in a peripheral vein using a Butterfly infusion set (Becton, Dickenson Co., Inc., Rutherford, N.J.). The marginal ear vein was used in the rabbit and the saphenous or the cephalic vein of the leg was used in the dog.
The formulations were given by slow intravenous infusion using a Sage syringe pump (Sage Instruments, Orion Research Inc., Cambridge, MA) over a 2 hour period. The animals were restrained but unanesthetized during the infusion. After the infusion, the animals were returned to their cages and offered food. The animals were sacrificed one day after the infusion.
At sacrifice, the infused vein was opened from the point of infusion and cardiad for several centimeters. The condition of the vein, its intima and the surrounding parenchyma, as well as the presence or absence of orange-yellow material and/or clots in the vein, were recorded in Tables IV and V.

normal human subjects = settings: single doses of 2.0 g, 24 subjects, cited from earlier work
[6] = dissolved in oil phase of soybean oil emulsion, parenteral; cited from earlier work
[7] = challenge tests, benzyl alcohol vs parabens as preservative; cited from earlier work
[8] = cited from earlier work
[9] = propylene glycol, benzyl alcohol and ethyl alcohol as solvents; cited from earlier work

Compound: C(=N\NC1=NCCN1)/c1c2ccccc2c(/C=N/NC2=NCCN2)c2ccccc12 [bisantrene dihydrochloride]
- chemical phlebitis (mammals): chemical phlebitis

Compound: CC(=O)Nc1ccc(OCC(O)CNC(C)C)cc1 (stereo not drawn) [Eraldin, practolol]
- Ambient Solution pH [1]: 5.80
- pH beyond which significant precipitation occurs [1]: 7.40

Compound: CC(C)(C)C(C)(C)Nc1nc(NC(C)(C)C(C)(C)C)nc(N2CC3CCC(CC3)C2)n1 [Antiarthritic Triazine Compound, 3-[4,6-bis[(1,1-2,2-tetramethylpropyl)amino]-s-triazin-2-yl]-3-azabicyclo[3.2.2]nonane]
- increase of solubility (physchem): 500 to 1000 µg/mL
- solubility (physchem): 300 µg/mL (≈ 697 µM)
- solubility in water (physchem): insignificant solubility in water
- solubility range (physchem): 500 to 1500 µg/mL
- solubility (physchem; 1,3-butylene glycol, organic solvent or mixture): 300 µg/mL (≈ 697 µM)
- solubility (physchem; benzyl alcohol, organic solvent or mixture): 800 µg/mL (≈ 1860 µM)
- solubility (physchem; benzyl benzoate, organic solvent or mixture): 1300 µg/mL (≈ 3020 µM)
- solubility (physchem; brij 35 2% solution): 50 µg/mL (≈ 116 µM)
- solubility (physchem; cremophor el, organic solvent or mixture): 200 µg/mL (≈ 464 µM)
- solubility (physchem; dimethyl acetamide, organic solvent or mixture): 700 µg/mL (≈ 1630 µM)
- solubility (physchem; emulphor el-620p, organic solvent or mixture): < 100 µg/mL
- solubility (physchem; ethanol usp, organic solvent or mixture): < 100 µg/mL
- solubility (physchem; propylene glycol isostearate, organic solvent or mixture): 1500 µg/mL (≈ 3480 µM)
- solubility (physchem; propylene glycol, organic solvent or mixture): < 100 µg/mL
- solubility (physchem; triacetin, organic solvent or mixture): 100 µg/mL (≈ 232 µM)
- parenteral absorption [2]: negligible
- oral absorption ([2]; po): slightly better
- dose excreted ([2]; oral, candidate dosage forms, preliminary, read-out: compound excreted in the feces): ~90%

Compound: N#CC(CCN1CCC(C(N)=O)(N2CCCCC2)CC1)(c1ccccc1)c1ccccc1 [Dipidolor, piritramide]
- Ambient Solution pH [1]: 3.97
- pH beyond which significant precipitation occurs [1]: 4.50

Compound: COc1cccc2c1C(=O)c1c(O)c3c(c(O)c1C2=O)C[C@@](O)(C(=O)CO)C[C@@H]3O[C@H]1C[C@H](N)[C@H](O)[C@H](C)O1 [Adriamycin]
- tissue damage on extravasation (soft tissues): massive tissue necrosis

Compound: O=C(CCCN1CC=C(n2c(=O)[nH]c3ccccc32)CC1)c1ccc(F)cc1 [Droperidol]
- Ambient Solution pH [1]: 3.24
- pH beyond which significant precipitation occurs [1]: 5.83

Compound: CN(C)CCCN1c2ccccc2Sc2ccccc21 [Prazine, promazine]
- Ambient Solution pH [1]: 4.85
- pH beyond which significant precipitation occurs [1]: 7.10

Compound: COc1ccc2c(c1)N(C[C@H](C)CN(C)C)c1ccccc1S2 [Nozinan, levomepromize]
- Ambient Solution pH [1]: 4.38
- pH beyond which significant precipitation occurs [1]: 6.50

Compound: C(=N\NC1=NCCN1)/c1c2ccccc2c(/C=N/NC2=NCCN2)c2ccccc12 [Bisantrene, bis(2-imidazolen-2-ylhydrazone)-9,10-anthracenedicarboxaldehyde]
- solubility ([3]; 5% dextrose solution, pH 4.6): 10000 µg/mL (≈ 25100 µM)
- solubility ([3]; Plasma, pH 7.7-8.2): 90 µg/mL (≈ 226 µM)
- solubility ([3]; Whole Blood, pH 7.9): 400 µg/mL (≈ 1000 µM)
- solubility ([3]; normal saline, pH 5.5): 2000 µg/mL (≈ 5020 µM)
- solubility ([3]; serum, pH 7.8): 27 µg/mL (≈ 67.8 µM)
- partitioning into erythrocytes [4]: eventually partitions into the erythrocytes

Compound: C(=N\NC1=NCCN1)/c1c2ccccc2c(/C=N/NC2=NCCN2)c2ccccc12 [Bisantrene HCl]
- External: Reddened ([5]; sex F): +
- External: Yellow Deposit ([5]; sex F): +
- Subcutaneous: Hemorrhage ([5]; sex F): -
- Vascular Lumen: Yellow Deposit ([5]; sex F): +
- External: Reddened ([5]; sex M): -
- External: Swollen ([5]; sex M): -
- External: Yellow Deposit ([5]; sex M): -
- Subcutaneous: Edema ([5]; sex M): +
- Subcutaneous: Hemorrhage ([5]; sex M): -
- Subcutaneous: Yellow Deposit ([5]; sex M): -
- Vascular Lumen: Blood Clot ([5]; sex M): -
- Vascular Lumen: Yellow Deposit ([5]; sex M): +

Compound: CC(CN1c2ccccc2Sc2ccccc21)N(C)C (stereo not drawn) [Phenergan, promethazine]
- Ambient Solution pH [1]: 5.68
- pH beyond which significant precipitation occurs [1]: 6.42

Compound: C[C@H]1C[C@@H]2[C@H]([C@@H](O)C[C@@]3(C)[C@H]2CC[C@]3(O)C(=O)COC(=O)CCC(=O)O)[C@@]2(C)C=CC(=O)C=C12 [methylprednisolone sodium succinate]
- tolerability / side effects (normal human subjects; benzyl alcohol or paraben preservative): well tolerated and no important drug-related side effects were encountered
- changes in vital signs, electrocardiograms, electroencephalograms, or laboratory parameters (normal human subjects): No clinically significant changes
- expected corticosteroid induced changes (normal human subjects): reversible

Compound: O=[N+]([O-])OCC(CO[N+](=O)[O-])O[N+](=O)[O-] [nitroglycerin]
- pharmacological effects compared with water solution of the sodium salts [6]: nearly equal

Compound: C[C@H](N)[C@H](O)c1cccc(O)c1 [Aramine, metaraminol]
- Ambient Solution pH [1]: 3.60
- pH beyond which significant precipitation occurs [1]: 5.80

Compound: OCc1ccccc1 [benzyl alcohol]
- antibacterial activity [7]: higher antibacterial activity
- acute systemic toxicity ([8]; 0.9% (w/v), intravenous): absence of acute systemic toxicity
- half-life ([8]; in vivo, iv): 1.5 h
- volume of distribution ([8]; in vivo): widespread tissue dissemination

Compound: OCCN(CCO)c1nc(N2CCCCC2)c2nc(N(CCO)CCO)nc(N3CCCCC3)c2n1 [Persantine, dipyridamole]
- Ambient Solution pH [1]: 3.12
- pH beyond which significant precipitation occurs [1]: 5.10

Compound: OCCOCCN1CCN(C(c2ccccc2)c2ccc(Cl)cc2)CC1 (stereo not drawn) [Atarax, hydroxyzine]
- Ambient Solution pH [1]: 5.60
- pH beyond which significant precipitation occurs [1]: 6.40

Compound: CN1C(=O)CN=C(c2ccccc2)c2cc(Cl)ccc21 [diazepam]
- pharmacological effects compared with water solution of the sodium salts [6]: nearly equal
- local reactions upon intravenous injection [9]: may not only cause pain upon intravenous injection, but also thrombophlebitis

Compound: CC1CC(OC(=O)C(O)c2ccccc2)CC(C)(C)C1 (stereo not drawn) [cyclandelate]
- pharmacological effects compared with water solution of the sodium salts [6]: nearly equal

Compound: CC(C)NCC(O)COc1cccc2ccccc12 (racemic) [Inderal, propanolol]
- Ambient Solution pH [1]: 3.50
- pH beyond which significant precipitation occurs [1]: 6.00
